Data taken from US8809280B2, “Therapeutic peptides” (Lytix Biopharma AS, priority 2009, dated 2014).
In brackets after ≈: the same amount, converted by molar mass.

Tests used:
Assay type in all cases: cell-based
[1] = tested on: HUV-EC-C; experiment: Compound 7 panel screening; details: Homo sapiens, umbilical vein, normal, endothelial
Protocol: (§1) Compound 7 described in Example 2 was screened against two normal cell lines and nine cancer cell lines.
(§2) All cell lines were of human origin. Stock solution of compound 7 was dissolved in assay media containing 10% DMSO. Three parallel experiments were performed against each cell line.

[2] = tested on: DU-145; experiment: Compound 7 panel screening; details: Homo sapiens, prostate carcinoma
Protocol: as §1, §2

[3] = tested on: UT-SCC-24A; experiment: Compound 7 panel screening; details: Homo sapiens, tongue squamous oral carcinoma
Protocol: as §1, §2

[4] = tested on: Ramos; experiment: Compound 7 panel screening; details: Homo sapiens, Burkitt's lymphoma
Protocol: as §1, §2

[5] = tested on: FEMX; experiment: Compound 7 panel screening; details: Homo sapiens, Fem-X, skin melanoma
Protocol: as §1, §2

[6] = tested on: HT-29; experiment: Compound 7 panel screening; details: Homo sapiens, colon colorectal adenocarcinoma
Protocol: as §1, §2

[7] = tested on: MDA-MB435; experiment: Compound 7 panel screening; details: Homo sapiens, MDA-MB-435, breast carcinoma
Protocol: as §1, §2

[8] = tested on: OVCAR-3; experiment: Compound 7 panel screening; details: Homo sapiens, ovary adenocarcinoma
Protocol: as §1, §2

[9] = tested on: UT-SCC-34A; experiment: Compound 7 panel screening; details: Homo sapiens, supraglottic larynx squamous oral carcinoma
Protocol: as §1, §2

[10] = tested on: Kelly; experiment: Compound 7 panel screening; details: Homo sapiens, neuroblastoma
Protocol: as §1, §2

[11] = tested on: MRC-5; experiment: Compound 7 panel screening; details: Homo sapiens, MRC5, lung, normal, fibroblast
Protocol: as §1, §2

[12] = tested on: Staphylococcus aureus (ATTC 25923); experiment: microbe, parasite or virus in culture; details: Example 2, values separated by / are repeat tests
Outline: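 Di-TFA salts tested in duplicate at 0.5–200 μg/ml against exponential-phase bacteria at 2×10^6 cfu/ml grown in 2% peptone water. Growth judged by well turbidity, with no-peptide and gentamicin controls.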

[13] = tested on: A20; experiment: cells
Protocol: Cancer Cell Lines A20 or MethA Anticancer assays: 500 μg/ml

[14] = tested on: human red blood cells; experiment: cells; details: Homo sapiens, Erythrocyte; Example 2; highest concentration tested 1000 μg/ml; * low solubility in the test media; read-out: Toxicity RBC (EC50)
Outline: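 Washed heparinized RBCs, diluted to 10% hematocrit then to 1% v/v final, incubated with compounds in PBS (1–1000 μg/mL) for 1 h at 37 °C with agitation. Hemoglobin release read at 405 nm against PBS (0%) and 0.1% Triton X-100 (100%); value reported is concentration giving 50% hemolysis.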

[15] = tested on: MRC-5; experiment: Toxicity assay MRC-5; details: highest concentration tested 500 μg/ml
Protocol: Cells for Toxicity Studies Used MRC-5 and human RBC MRC-5 assay: 500 μg/ml

[16] = tested on: methicillin resistant Staphylococcus aureus (ATCC 33591); experiment: microbe, parasite or virus in culture; details: Staphylococcus aureus, ATCC 33591 / MRSA, Example 2; values separated by / are repeat tests; read-out: Antimicrobial potency (MIC) MRSA
Outline: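 Di-TFA salts tested in duplicate at 200 down to 0.5 μg/ml against exponentially grown bacteria at 2×10^6 cfu/ml. Growth judged by well turbidity, with no-peptide and gentamicin controls.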

[17] = tested on: methicillin resistant Staphylococcus epidermidis (ATCC 27626); experiment: microbe, parasite or virus in culture; details: Example 2, values separated by / are repeat tests
Outline: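 Exponentially grown bacteria (2% peptone water) at 2×10^6 cfu/ml exposed in duplicate to di-TFA salts at 0.5–200 μg/ml. Growth or no growth judged by well turbidity; no-peptide and gentamicin controls included.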

[18] = tested on: Escherichia coli (ATTC 25922); experiment: microbe, parasite or virus in culture; details: Escherichia coli, Example 2; values separated by / are repeat tests; read-out: Antimicrobial potency (MIC) E. coli
Outline: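 Broth dilution in 2% Bacto Peptone water, inoculum 2×10^6 cfu/ml of exponential-phase bacteria; compounds (di-TFA salts) tested in duplicate at 200 down to 0.5 μg/ml. Growth judged by well turbidity, with no-peptide negative and gentamicin positive controls.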

## NCCNC(=O)C(CN)(Cc1ccc2ccccc2c1)Cc1ccc2ccccc2c1 [Compound 7, 3-amino-N-(2-aminoethyl)-2,2-bis(naphthalen-2-ylmethyl)propanamide]
[1]
  IC50: 3.81 µg/mL (≈ 9.26 µM)
[2]
  IC50: 15.2 µg/mL (≈ 37 µM)
[3]
  IC50: 14.2 µg/mL (≈ 34.5 µM)
[4]
  IC50: 2.61 µg/mL (≈ 6.34 µM)
[5]
  IC50: 17.1 µg/mL (≈ 41.6 µM)
[6]
  IC50: 15.4 µg/mL (≈ 37.5 µM)
[7]
  IC50: 6.54 µg/mL (≈ 15.9 µM)
[8]
  IC50: 18.1 µg/mL (≈ 43.9 µM)
[9]
  IC50: 16.2 µg/mL (≈ 39.3 µM)
[10]
  IC50: 3.9 µg/mL (≈ 9.48 µM)
[11]
  IC50: 8.21 µg/mL (≈ 19.9 µM)
[12]
  Antimicrobial potency (MIC) S. aureus: 5 µg/mL
[12]; Staphylococcus aureus, read-out: Antimicrobial potency (MIC) S. aureus
  MIC: 2.5 µg/mL (≈ 6.07 µM)
[13]; Example 2, highest concentration tested 500 μg/ml, * low solubility in the test media (Table 2)
  Anticancer potency (IC50) A20: 0.7 µg/mL
[13]; ratio of MRC-5 to A20 values
  Anti-Cancer Selectivity MRC-5/A20: 19.3-20
[13]; ratio of RBC EC50 to A20 IC50
  Anti-Cancer Selectivity RBC/A20: 417
[14]
  EC50: 292 µg/mL (≈ 710 µM)
[15]; Example 2
  Toxicity MRC-5: 14 µg/mL
[15]; Homo sapiens, MRC5, Example 2
  IC50: 13.5 µg/mL (≈ 32.8 µM)
[16]
  MIC: 5 µg/mL (≈ 12.1 µM)
[17]
  Antimicrobial potency (MIC) MRSE: 5 µg/mL
[17]; Staphylococcus epidermidis, ATCC 27626 / MRSE, read-out: Antimicrobial potency (MIC) MRSE
  MIC: 2.5 µg/mL (≈ 6.07 µM)
[18]
  MIC: 15 µg/mL (≈ 36.4 µM)
